The text below walks through data of PMC548150, “Reversal of a full-length mutant huntingtin neuronal cell phenotype by chemical inhibitors of polyglutamine-mediated aggregation” (BMC Neuroscience, 2005).

Data set [1] concerns ST111/111 striatal cells. In kind it is cell-based. Conditions: 30 min at 33°C. How it is done: (§1) After the treatment the drugs were removed and the cells washed twice in PBS. The cells were then fixed by incubation in 4% formaldehyde for 15 min, permeabilized by 0.1% Triton X-100 for 5 min and incubated for 30 min with blocking solution (1% bovine albumin in PBS). Coverslips were then incubated in primary antibody (AP229 1:500 dilution) for 2 h at room temperature and washed three times in PBS before a further 1 h in blocking solution containing the secondary antibody (goat anti-rabbit Cy3, Jackson ImmunoResearch, West Grove, PA. USA). After three washes in PBS coverslips were mounted onto glass slides with Vectashield (Burlingame, CA. USA) and the images were analyzed with a laser confocal microscope (Bio-Rad, Hercules, CA. USA) using 20 × objective. Cell death was quantified by scoring the percentage of cells with apoptotic nuclear morphology, i.e. condensed or fragmented nuclei, under the confocal microscope. In each case five to ten randomly selected fields were counted, comprising at least 200 cells, and each experiment was repeated 3 times.

Data set [2] has as its target T1, Q58-htn 1–171 amino terminal fragment (GST-Q58-Htn cleaved by thrombin) (Homo sapiens, UniProt P42858, INS38QQQQQQQQQQQQQQQQQQQQQQQQQQQQQQQQQQQQQ).
T1 construct: the amino terminal fragment 1–171 of mutant huntingtin; GST (N, cleaved yes); made in house; host or cells: E. coli BL21 (pGEX-2TK vector)
Description: in vitro aggregation of amino-terminal mutant huntingtin fragment (filter retardation dot blot). In kind it is biochemical. How it is done: In our primary screen (Figure 1A), GST-Q58-Htn (20 μg/ml) was mixed with thrombin (0.5 unit/μg GST-Q58-Htn) and immediately dispensed into a 96-well PCR plate containing compounds diluted to a final concentration of 100 μM. Incubation was continued for 24 hours at room temperature to allow aggregate formation. The aggregation was stopped by 2% SDS/10 mM 2-mercaptoethanol followed by boiling for 5 minutes. The mixture was filtered through a cellulose acetate membrane by using a 96-well ELIFA dot blot apparatus. The aggregates retained on the membrane were detected and quantified by immunoblotting and subsequent image analysis. Congo Red, a known huntingtin aggregation inhibitor, was used as the positive control.
A recombinant pGEX-2TK expression vector with cDNA fragment encoding amino terminal 171 amino acids of human huntingtin with a polyglutamine tract of 58 was used to prepare the GST-Q58-htn fusion protein. The GST-Q58-htn was overexpressed in BL21 cells and purified by affinity chromatography over glutathione-sepharose 4B beads (Amersham Pharmacia Biotech). The purified proteins were stored at concentration of 2.0 mg/ml at -80°C.
For primary screening of the chemical library, 1 μl of 4.0 mM small compound stock, diluted from the original plates, was placed in wells of 96-well plates. The fusion protein, GST-Q58-Htn was mixed with thrombin (0.5 unit/1 μg protein) at a concentration of 20 μg/ml in a buffer of 50 mM Tris-HCl, pH 8.0, 100 mM NaCl, 2.5 mM CaCl2, 1.0 mM EDTA. The mixture was immediately distributed into the 96-well plates containing diluted compounds at 40 μl/well and mixed well. The final concentration of the small compounds was 100 μM. After 24 hours incubation at room temperature, the reaction was stopped by adding 10 μl of 10% SDS/50 mM 2-mercaptoethanol to each well followed by boiling in a PCR machine for 5 minutes. The mixture from each well was filtered through a cellulose acetate membrane ((0.2 μm, GE Osmonics labstore, Minnetonka MN) by using a 96-well ELIFA (Pierce Biotech). The aggregates retained on the membrane were detected by a specific anti-huntingtin antibody, HP1 (diluted 1:1000), followed by incubation with peroxidase conjugated anti-rabbit antibody (diluted 1:10,000, Sigma). Signals from SDS insoluble aggregates were scanned and quantified by using ImageMaster Totalab image analysis software (Amersham Pharmacia Biotech). In the secondary screening, all steps were the same except the final concentration of compound in each well was reduced to 10 μM and the GST-Q58-Htn/thrombin mixture was preincubated for 45-minutes at room temperature and clarified by centrifugation at 28,000 × g for 30 minutes before being added to the test wells. For IC50 determinations, the in vitro aggregation assay and signal quantification were performed as in the second screening but varying the final concentration of input drug. The data for each inhibitor were obtained from at least two independent experiments in which every sample was analyzed in triplicate with Prism 3.0 software (Graphpad Software, Inc., San Diego, CA).

Data set [3] relates to PC12 cells expressing huntingtin exon 1 encoding 103 glutamines. On the set-up: method as in PMID 15262266. The settings on record: cited from earlier work.
Data set [4] has as its system ST111/111 striatal cells (Hdh^Q111/Q111, full-length mutant huntingtin). Description: striatal cell line assay: huntingtin localization phenotype (AP229 immunostaining, confocal). In kind it is cell-based, mouse. Conditions: for Percentage of ST111/111 cells showing cytoplasmic/nuclear huntingtin localization comparable to wild-type ST7/7 cells: 30 min at 33°C, mean ± SD of 5–10 fields.
Description: To test the hypothesis that compounds, which inhibit the aggregation-promoting property of amino-terminal mutant huntingtin will also rescue effects of full-length mutant huntingtin, we tested the top six inhibitors in a striatal cell-based assay. Mutant Hdh^Q111/Q111 and wild-type Hdh^Q7/Q7 striatal cell lines, […], which have been prepared by transformation with a tsSV40 vector, can be propagated in culture and used for cytological and biochemical comparisons. These cells express full-length mutant or wild-type huntingtin, respectively, with no evidence of truncated amino-terminal fragments, no formation of polyglutamine aggregates and no cell death-producing toxicity. However, like the striatal neurons of Hdh^Q111/Q111 knock-in mice, the ST111/111 cells show nuclear staining of huntingtin when tested with an amino-terminal huntingtin antibody that is sensitive to the conformation of the full-length protein (Figure 5A). By contrast, ST7/7 cells expressing wild type huntingtin show both nuclear and cytoplasmic immunostaining with the same huntingtin antibody (Figure 5A).
Conditionally immortalized wild-type Hdh^Q7/Q7 striatal neuronal progenitor cells (ST7/7) expressing endogenous normal huntingtin, and homozygous Hdh^Q111/Q111 striatal neuronal progenitor cells (ST111/111), expressing endogenous mutant huntingtin with 111-glutamines, have been described previously. The striatal cell lines were grown at 33°C in Dulbecco's modified Eagle's medium (DMEM) supplemented with 10 % fetal bovine serum (FBS), 1% nonessential aminoacids, 2 mM L-glutamine and 400 μg/ml G418 (Geneticin (GIBCO-BRL, Life Technologies, Gaithersburg, MD).
as §1, with “In the immunofluorescence and confocal analysis experiment, wild-type ST7/7 and homozygous mutant ST111/111 cells, grown to confluence on glass coverslips, were treated with 6 different drugs at four different concentrations (0.5, 5, 10 or 50 μM) for 30 min at 33°C. After the” for “After the”

Data set [5] deals with HEK 293T cells expressing androgen receptor with 112 glutamines. The settings on record: cited from earlier work.
In data set [6] the test system is hippocampal slice cultures from the R6/2 mouse. Set-up: method as in PMID 12891671. Conditions: 30 μM; cited from earlier work.

Values joined by “and” are separate entries in the source; they are usually repeats but may differ in a detail not shown here. Identical values can stand only once. “Also recorded” adds a separate entry of the source. Like-named read-outs stand apart in the source and are kept apart here. A value given as a limit tells only on which side of the number the result lay.

T1 sequence (P42858 with tags, fused parts or gaps with the stated changes limits assumed): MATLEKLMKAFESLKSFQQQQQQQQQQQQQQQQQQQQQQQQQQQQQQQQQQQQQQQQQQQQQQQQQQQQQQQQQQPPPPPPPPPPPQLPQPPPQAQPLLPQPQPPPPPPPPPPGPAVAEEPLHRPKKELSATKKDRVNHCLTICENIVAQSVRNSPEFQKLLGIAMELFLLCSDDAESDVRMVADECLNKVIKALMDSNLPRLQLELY

For `CC1=C(O)C(=O)C=C2C1=CC=C1[C@@]2(C)CC[C@@]2(C)[C@@H]3C[C@](C)(C(=O)O)CC[C@]3(C)CC[C@]12C` [Celastrol], the “percentage of dead cells” value turned out to be 1% in data set [1] (5 μM) and 4% in data set [1] (10 μM). For the same compound, in data set [2], the IC50 (in general, the concentration that inhibits the measured activity by half) is < 6 µM and < 15 µM and 3.55 µM. In addition, the residual aggregate formed entry in data set [2] (at the maximum concentration of the dose response (0.01 μM to 500 μM)) is “approximately 20%”. Besides, the “protection against polyglutamine toxicity” value in data set [3] was “partially protective”. Also, the figures for the “Percentage of ST111/111 cells showing cytoplasmic/nuclear huntingtin localization comparable to wild-type ST7/7 cells” value in data set [4] (0.5 μM), in data set [4] (5 μM) and in data set [4] (10 μM) were 8.7 ± 8.7%, 69.2 ± 3.8% and 78.1 ± 3.5%, respectively. Further, in data set [4] (0.5–50 μM tested), the “reversal of the mutant huntingtin localization phenotype (in words)” value was “reversed the mutant phenotype in a dose-dependent manner; also recorded: effective”. Further, the “effect on caspase 3 activation” value in data set [5] is on record as “blocked caspase 3 activation”. Moreover, in data set [5], the “toxicity in the HEK 293T assay” value is on record as “showed toxicity”.
Take `CN(C)c1ccc(O)c2c1C[C@H]1C[C@H]3[C@H](N(C)C)C(O)=C(C(N)=O)C(=O)[C@@]3(O)C(O)=C1C2=O` [minocycline]: the IC50 in data set [2] (GST-Q58-Htn 20 μg/ml pre-incubated with thrombin, 24 h room temperature, average of at least two independent experiments, read-out: IC50 (half-maximal inhibition) of Q58-Htn aggregation) amounted to 43 µM. The “effect on huntingtin exon 1 aggregation” value in data set [6] is on record as “inhibitory effect”.
